Laboratory results from patent US20260250320A1, “LIPIDATED PEPTIDE INHIBITORS OF INTERLEUKIN-23 RECEPTOR” (Janssen Pharmaceutica NV, priority 2023, published 2026).
*1 amine or outer side, *2 acyl side, *3 side chain or, on linkers, in order; H or OH if unused. Where a SMILES comes first, the peptide text is derived from it. Bridges are numbered along the chain shown (N, C = ends). Side-chain parts run from the residue outwards. [ ]: non-standard residue; d: D form. The star is where a group is joined. ξ: configuration not given here. X17 = O=C(O)CCCCCCCCCCCCCCCCCCC(=O)N[C@@H](CCC(=O)NCCOCCOCCOCCOCCOCCOCCOCCOCCOCCOCCOCCOCCOCC(=O)*)C(=O)O; X21 = NC(=O)C[C@H](N[*:1])C(=O)C[C@@H](Cc1cccnc1)C(=O)[*:2]; Me3N+(CH2)2O(CH2)2O(CH2)2CO = C[N+](C)(C)CCOCCOCCC(=O)*; CH2CH2OCH2CH2OCH2CH2NMe3+ = C[N+](C)(C)CCOCCOCC*; Trp(7-Me) = Cc1cccc2c(C[C@H](N)C(=O)O)c[nH]c12; Hexanoyl(6-NMe3+) = C[N+](C)(C)CCCCCC(=O)*; C18 diacid = O=C(O)CCCCCCCCCCCCCCCCC(=O)*; γGlu = O=C(O)[C@H](CCC(=O)[*:2])N[*:1]; 2Nal = N[C@@H](Cc1ccc2ccccc2c1)C(=O)O; AEF = NCCOc1ccc(C[C@H](N)C(=O)O)cc1; PEG6 = NCCOCCOCCOCCOCCOCCOCCC(=O)O; X2 = C[N+](C)(C)C[C@@H](CC(=O)O)N*; 3Pal = N[C@@H](Cc1cccnc1)C(=O)O; Lys(Me) = CNCCCC[C@H](N)C(=O)O; Pen = CC(C)(S)[C@H](N)C(=O)O; Suc = O=C(CCC(=O)[*:2])[*:1]; Thp = NC1(C(=O)O)CCOCC1; X1 = C[N+](C)(C)CCCCC*; AEEA = NCCOCCOCC(=O)O; ξK = NCCCCC(N)C(=O)O; Sar = CNCC(=O)O

Tests used:
IL-23R = target: T1, IL-23R (Homo sapiens, UniProt Q5VWK5); assay: IL23R Reporter Assay; assay type: cell-based; conditions: HEK293 cells containing IL-23R, IL-12Rβ1 and STAT-inducible firefly luciferase reporter; 10 ng/mL IL-23 (EC90); 5 h
T1 construct: HEK293 cells containing IL-23R, IL-12Rβ1 and a firefly luciferase reporter gene driven by a STAT-inducible promoter (Promega); host or cells: HEK293
T1 sequence (Q5VWK5 24-629): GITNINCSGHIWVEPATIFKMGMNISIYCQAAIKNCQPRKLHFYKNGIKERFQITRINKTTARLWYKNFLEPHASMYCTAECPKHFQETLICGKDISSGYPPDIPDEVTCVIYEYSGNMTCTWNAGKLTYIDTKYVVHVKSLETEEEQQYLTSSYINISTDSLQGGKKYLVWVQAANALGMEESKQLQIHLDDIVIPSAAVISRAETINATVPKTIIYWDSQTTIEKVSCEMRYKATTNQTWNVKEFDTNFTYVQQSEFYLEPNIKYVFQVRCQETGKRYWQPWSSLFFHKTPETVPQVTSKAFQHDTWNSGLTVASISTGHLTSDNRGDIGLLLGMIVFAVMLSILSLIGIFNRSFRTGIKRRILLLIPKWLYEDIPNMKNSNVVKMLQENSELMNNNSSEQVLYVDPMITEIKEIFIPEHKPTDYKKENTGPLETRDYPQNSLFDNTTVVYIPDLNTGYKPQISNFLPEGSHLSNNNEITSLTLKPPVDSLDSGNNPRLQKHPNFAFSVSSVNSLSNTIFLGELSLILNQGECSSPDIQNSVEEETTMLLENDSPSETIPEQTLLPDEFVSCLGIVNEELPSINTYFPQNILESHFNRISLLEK
Outline: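 IC50 values were fitted with a 4-parameter Hill equation to luciferase signal, scaled between IL-23-only wells (0% inhibition) and 30 μM reference inhibitor (100%). The readout was a STAT-inducible reporter in IL-23R/IL-12Rβ1 HEK293 cells, stimulated with added 10 ng/mL IL-23 (EC90) for 5 h at 37° C and developed with BioGlo.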

[1] = system: IL-23-stimulated phosphorylated STAT3 in peripheral blood mononuclear cells (PBMCs); assay: PBMC pSTAT3 Assay; assay type: cell-based; conditions: PBMCs from healthy donors; 30 min preincubation with peptide; IL-23 5 ng/mL for 30 min; phospho-STAT3 by MSD
Outline: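 Phospho-STAT3 quantified by Meso Scale assay in lysates of PBMCs exposed to IL-23 (5 ng/mL, 30 min, 37 °C) after 30 min peptide pretreatment. Cells were cryopreserved donor PBMCs activated 4 days with anti-CD3 plus IL-1β (100 ng/mL) and starved ~4 h; IC50 reported.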

| Compound | IC50 (IL-23R) [µM] | IC50 [1] [µM] |
| --- | --- | --- |
| CC(=O)N[C@H](CCCNC(=N)N)C(=O)N[C@@H]1C(=O)N[C@@H](CC(N)=O)C(=O)N[C@@H]([C@@H](C)O)C(=O)N[C@@H](Cc2c[nH]c3c(C)cccc23)C(=O)N[C@@H](CCCCNC(=O)COCCOCCNC(=O)COCCOCCNC(=O)CC[C@H](NC(=O)CCCCCCCCCCCCCCCCC(=O)O)C(=O)O)C(=O)N[C@H](C(=O)N[C@@H](Cc2ccc(OCCN)cc2)C(=O)N[C@@H](Cc2ccc3ccccc3c2)C(=O)NC2(C(=O)N[C@@H](CCCCN(C)C(=O)CCOCCOCC[N+](C)(C)C)C(=O)N[C@@H](CC(N)=O)C(=O)C[C@@H](Cc3cccnc3)C(=O)N(C)CC(N)=O)CCOCC2)C(C)(C)SSC1(C)C [compound 79, MeCO-r-Pen(3)-N-T-7MeW-K(PEG2PEG2gEC18OH)-Pen(3)-AEF-2Nal-THP-K(NMecPEG3a)-N-3Pya-Sar-CONH2] (Ac-[dR][Pen]NT[Trp(7-Me)]K([AEEA-AEEA-γGlu-C18 diacid])[Pen][AEF][2Nal][Thp][Lys(Me)](Me3N+(CH2)2O(CH2)2O(CH2)2CO)[X21][Sar]-NH2; disulfide 2-7) | 0.05 to 0.5 | < 0.0005 |
| Cc1cccc2c(C[C@@H]3NC(=O)[C@H]([C@@H](C)O)NC(=O)[C@H](CC(N)=O)NC(=O)[C@@H](NC(=O)[C@@H](CCCNC(=N)N)NC(=O)CCC(=O)N[C@H](CC(=O)O)C[N+](C)(C)C)C(C)(C)SSC(C)(C)[C@@H](C(=O)N[C@@H](Cc4ccc(OCCN)cc4)C(=O)N[C@@H](Cc4ccc5ccccc5c4)C(=O)NC4(C(=O)N[C@@H](CCC(=O)O)C(=O)N[C@@H](CC(N)=O)C(=O)N[C@@H](Cc5cccnc5)C(=O)N(C)CC(N)=O)CCOCC4)NC(=O)[C@H](CCCCNC(=O)COCCOCCNC(=O)COCCOCCNC(=O)CC[C@H](NC(=O)CCCCCCCCCCCCCCCCC(=O)O)C(=O)O)NC3=O)c[nH]c12 [compound 19, MeCO-r-Pen(3)-N-T-7MeW-K(PEG2PEG2gEC18OH)-Pen(3)-AEF-2Nal-THP-E-N-3Pya-NMeK(d)-CONH2] ({X2-Suc}-[dR][Pen]NT[Trp(7-Me)]K([AEEA-AEEA-γGlu-C18 diacid])[Pen][AEF][2Nal][Thp]EN[3Pal][Sar]-NH2; disulfide 2-7) | 0.05 to 0.5 | < 0.0005 |
| CC(=O)N(C)CCCC[C@@H]1NC(=O)[C@H](Cc2c[nH]c3c(C)cccc23)NC(=O)[C@H]([C@@H](C)O)NC(=O)[C@H](CC(=O)N(C)C)NC(=O)[C@@H](NC(=O)CCOCCOCCOCCOCCOCCOCCNC(=O)CC[C@H](NC(=O)CCCCCCCCCCCCCCCCC(=O)O)C(=O)O)C(C)(C)SSC(C)(C)[C@@H](C(=O)N[C@@H](Cc2ccc(OCCOCCOCC[N+](C)(C)C)cc2)C(=O)N[C@@H](Cc2ccc3ccccc3c2)C(=O)NC2(C(=O)N[C@@H](CCCCN(C)C(C)=O)C(=O)N[C@@H](CC(N)=O)C(=O)N[C@@H](Cc3cccnc3)C(=O)N(C)CC(=O)N(C)C)CCOCC2)NC1=O [compound 109, HOC18gEPEG6CO-Pen(3)-N(N(Me)2)-T-7MeW-K(NMeAc)-Pen(3)-APEG3F-2Nal-THP-K(NMeAc)-N-3Pya-Sar-CON(Me)2] ({C18 diacid-γGlu-PEG6}-[Pen]D(NMe2)T[Trp(7-Me)][Lys(Me)](Ac)[Pen]Y(CH2CH2OCH2CH2OCH2CH2NMe3+)[2Nal][Thp][Lys(Me)](Ac)N[3Pal][Sar]-NMe2; disulfide 1-6) | < 0.05 | < 0.0005 |
| CC(=O)N[C@H](CCCNC(=N)N)C(=O)N[C@@H]1C(=O)N[C@@H](CC(N)=O)C(=O)N[C@@H]([C@@H](C)O)C(=O)N[C@@H](Cc2c[nH]c3c(C)cccc23)C(=O)NC(CCCCNC(=O)COCCOCCNC(=O)COCCOCCNC(=O)CC[C@H](NC(=O)CCCCCCCCCCCCCCCCC(=O)O)C(=O)O)C(=O)N[C@H](C(=O)N[C@@H](Cc2ccc(OCCN)cc2)C(=O)N[C@@H](Cc2ccc3ccccc3c2)C(=O)NC2(C(=O)N[C@@H](CCC(=O)O)C(=O)N[C@@H](CC(N)=O)C(=O)N[C@@H](Cc3cccnc3)C(=O)N(C)CC(N)=O)CCOCC2)C(C)(C)SSC1(C)C (stereo partly drawn) [compound 59, MeCO-r-Pen(3)-N-T-7MeW-K(PEG2PEG2gEC18OH)-Pen(3)-AEF-2Nal-THP-E-N-3Pya-Sar-CONH2] (Ac-[dR][Pen]NT[Trp(7-Me)][ξK]([AEEA-AEEA-γGlu-C18 diacid])[Pen][AEF][2Nal][Thp]EN[3Pal][Sar]-NH2; disulfide 2-7) | 0.05 to 0.5 | < 0.0005 |
| CC(=O)N(C)CCCC[C@@H]1NC(=O)[C@H](Cc2c[nH]c3c(C)cccc23)NC(=O)[C@H]([C@@H](C)O)NC(=O)[C@H](CC(=O)N(C)C)NC(=O)[C@@H](NC(=O)[C@@H](CCCCNC(=O)COCCOCCOCCOCCOCCOCCOCCOCCOCCOCCOCCOCCOCCNC(=O)CC[C@H](NC(=O)CCCCCCCCCCCCCCCCCCC(=O)O)C(=O)O)NC(=O)CCOCCOCC[N+](C)(C)C)C(C)(C)SSC(C)(C)[C@@H](C(=O)N[C@@H](Cc2ccc(OCCCCC[N+](C)(C)C)cc2)C(=O)N[C@@H](Cc2ccc3ccccc3c2)C(=O)NC2(C(=O)N[C@@H](CCCCN(C)C(C)=O)C(=O)N[C@@H](CC(N)=O)C(=O)N[C@@H](Cc3cccnc3)C(=O)N(C)CC(=O)N(C)C)CCOCC2)NC1=O [compound 130, cPEG3aCO-k(PEG12gEC20OH)-Pen(3)-N(N(Me)2)-T-7MeW-K(NMeAc)-Pen(3)-TMAPF-2Nal-THP-K(NMeAc)-N-3Pya-Sar-CON(Me)2] ({Me3N+(CH2)2O(CH2)2O(CH2)2CO}-[dK](X17)[Pen]D(NMe2)T[Trp(7-Me)][Lys(Me)](Ac)[Pen]Y(X1)[2Nal][Thp][Lys(Me)](Ac)N[3Pal][Sar]-NMe2; disulfide 2-7) | < 0.05 | < 0.0005 |
| CC(=O)NCCCC[C@@H]1NC(=O)[C@H](Cc2c[nH]c3c(C)cccc23)NC(=O)[C@H]([C@@H](C)O)NC(=O)[C@H](CC(N)=O)NC(=O)[C@@H](NC(=O)[C@@H](CCCNC(=N)N)NC(=O)CCCCC[N+](C)(C)C)C(C)(C)SSC(C)(C)[C@@H](C(=O)N[C@@H](Cc2ccc(OCCN)cc2)C(=O)N[C@@H](Cc2ccc3ccccc3c2)C(=O)NC2(C(=O)N[C@@H](CCC(=O)O)C(=O)N[C@@H](CC(N)=O)C(=O)N[C@@H](Cc3cccnc3)C(=O)N(C)CC(=O)N[C@@H](CCCCNC(=O)COCCOCCNC(=O)COCCOCCNC(=O)CC[C@H](NC(=O)CCCCCCCCCCCCCCCCC(=O)O)C(=O)O)C(N)=O)CCOCC2)NC1=O [compound 81, 5cpaCO-r-Pen(3)-N-T-7MeW-K(Ac)-Pen(3)-AEF-2Nal-THP-E-N-3Pya-Sar-K(PEG2PEG2gEC18OH)-CONH2] ({Hexanoyl(6-NMe3+)}-[dR][Pen]NT[Trp(7-Me)]K(Ac)[Pen][AEF][2Nal][Thp]EN[3Pal][Sar]K([AEEA-AEEA-γGlu-C18 diacid])-NH2; disulfide 2-7) | 0.05 to 0.5 | < 0.0005 |
| CC(=O)NCCCC[C@@H]1NC(=O)[C@H](Cc2c[nH]c3c(C)cccc23)NC(=O)[C@H]([C@@H](C)O)NC(=O)[C@H](CC(N)=O)NC(=O)[C@@H](NC(=O)[C@@H](CCCNC(=N)N)NC(=O)COCCOCCNC(=O)COCCOCCNC(=O)CC[C@H](NC(=O)CCCCCCCCCCCCCCCCC(=O)O)C(=O)O)C(C)(C)SSC(C)(C)[C@@H](C(=O)N[C@@H](Cc2ccc(OCCCCC[N+](C)(C)C)cc2)C(=O)N[C@@H](Cc2ccc3ccccc3c2)C(=O)NC2(C(=O)N[C@@H](CCC(=O)O)C(=O)N[C@@H](CC(N)=O)C(=O)N[C@@H](Cc3cccnc3)C(=O)N(C)CC(N)=O)CCOCC2)NC1=O [compound 83, HOC18gEPEG2PEG2CO-r-Pen(3)-N-T-7MeW-K(Ac)-Pen(3)-TMAPF-2Nal-THP-E-N-3Pya-Sar-CONH2] ({C18 diacid-γGlu-AEEA-AEEA}-[dR][Pen]NT[Trp(7-Me)]K(Ac)[Pen]Y(X1)[2Nal][Thp]EN[3Pal][Sar]-NH2; disulfide 2-7) | < 0.05 | < 0.0005 |
| CC(=O)NCCCC[C@@H]1NC(=O)[C@H](Cc2c[nH]c3c(C)cccc23)NC(=O)[C@H]([C@@H](C)O)NC(=O)[C@H](CC(N)=O)NC(=O)[C@@H](NC(C)=O)C(C)(C)SSC(C)(C)[C@@H](C(=O)N[C@@H](Cc2ccc(OCCN)cc2)C(=O)N[C@@H](Cc2ccc3ccccc3c2)C(=O)NC2(C(=O)N[C@@H](CCC(=O)O)C(=O)N[C@@H](CC(N)=O)C(=O)N[C@@H](Cc3cccnc3)C(=O)N(C)CC(=O)N[C@@H](CCCCNC(=O)CCOCCOCCOCCOCCOCCOCCOCCOCCOCCOCCOCCOCCNC(=O)CC[C@H](NC(=O)CCCCCCCCCCCCCCCCCCC(=O)O)C(=O)O)C(N)=O)CCOCC2)NC1=O [compound 103, MeCO-Pen(3)-N-T-7MeW-K(Ac)-Pen(3)-AEF-2Nal-THP-E-N-3Pya-Sar-K(PEG12gEC20OH)-CONH2] | < 0.05 | < 0.0005 |
